Test results from paper PMC6158189, “A pharmacological probe identifies cystathionine β-synthase as a new negative regulator for ferroptosis” (Cell Death & Disease, 2018).
Where “and” joins values, the source holds several entries; their conditions need not be identical. Equal values may be shown once. Read-outs that look alike come from different tables or passages of the source.

Molecular target: T1, hCBS (Homo sapiens, UniProt P35520)
T1 construct: GST (N); made in house; host or cells: E. coli BL21
T1 sequence (P35520 1-551): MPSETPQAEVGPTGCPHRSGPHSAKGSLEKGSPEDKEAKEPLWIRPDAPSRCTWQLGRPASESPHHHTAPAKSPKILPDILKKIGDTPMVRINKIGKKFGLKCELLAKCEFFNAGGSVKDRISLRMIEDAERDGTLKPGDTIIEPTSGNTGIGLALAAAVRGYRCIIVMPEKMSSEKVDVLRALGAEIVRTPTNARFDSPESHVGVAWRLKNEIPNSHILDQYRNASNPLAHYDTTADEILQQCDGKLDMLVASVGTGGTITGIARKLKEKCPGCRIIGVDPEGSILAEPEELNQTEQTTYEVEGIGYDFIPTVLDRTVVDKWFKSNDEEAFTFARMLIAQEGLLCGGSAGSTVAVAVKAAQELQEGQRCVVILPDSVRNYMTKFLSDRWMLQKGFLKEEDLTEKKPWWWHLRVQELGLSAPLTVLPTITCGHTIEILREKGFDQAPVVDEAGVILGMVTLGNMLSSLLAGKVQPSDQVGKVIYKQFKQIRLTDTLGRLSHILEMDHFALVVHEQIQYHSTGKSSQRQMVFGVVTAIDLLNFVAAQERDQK
Assay: enzyme kinetics of hCBS inhibition
Type: biochemical
Experimental: Figure S2. The mode of action of CH004 in inhibiting hCBS. […] After incubation with DMSO or CH004 at 10 μM for 40 min, hCBS (20 μM) was diluted 200-fold and the activity was measured according to the standard assay protocol (Materials and Methods). The data are presented as percentages of control (CTR; DMSO, 100%) and shown as means ± SDs (n = 5). The effects of 0.05 and 10 μM CH004 on hCBS (100 nM) without pre-incubation were defined as positive control (PC) and negative control (NC), respectively. (B) Inhibition of hCBS by CH004 as a function of PLP concentration with Cys (20 mM) together with Hcys (10 mM) as substrates (non-competitive inhibition constant αKi=15.2 ± 4.9 μM). (C) Inhibition of hCBS by CH004 as a function of Cys concentration in the presence of 100 μM PLP and the absence of Hcys (mixed inhibition constant αKi=26.4 ± 8 μM). (D) Inhibition of hCBS by CH004 as a function of Hcys concentration in the presence of 20 mM Cys and 100 μM PLP (mixed inhibition constant αKi’=7.2 ± 1.6 μM). Each point in the Lineweaver-Burk plots represents the means of triplicate. The αKi or αKi’ values were calculated by using the non-linear fitting method for enzyme kinetics in GraphPad Prism 5. (E) Surface Plasmon Resonance assays analysis of the binding of CH004 to hCBS. Solutions with various concentrations of CH004 (0.097–12.5 µM) were injected into the chamber with a hCBS-coated sensor chip. The change of response units is shown over time. Dissociation constants for CH004 (KD) were calculated by using Biacore evaluation software (Materials and Methods).

Cn1nc(Cc2ccccc2)nc2c(=O)n(C)c(=O)nc1-2 [CH004, 3-benzyl-1,6-dimethylpyrimido[5,4-e][1,2,4]triazine-5,7(1H,6H)-dione]
mode of inhibition toward Cys and Hcys: mixed-type inhibition | mode of inhibition toward PLP: noncompetitive inhibition | Ki (100 μM PLP, absence of Hcys, read-out: αKi toward Cys (mixed inhibition constant)): ~26.4 µM and 26.4 µM | Ki (20 mM Cys, 100 μM PLP, read-out: αKi’ toward Hcys (mixed inhibition constant)): ~7.2 µM and 7.2 µM | Ki (Cys 20 mM and Hcys 10 mM as substrates, read-out: αKi toward PLP (non-competitive inhibition constant)): ~15.2 µM and 15.2 µM
